Assays:
Format in all cases: in vivo
Conditions in all cases: rating 0-100 (0 no damage, 100 complete death), 14 days after application
[1] = system: redroot pigweed (Amaranthus retroflexus, AMARE); assay: Pre-emerge herbicidal activity, greenhouse screen, AMARE
Description: (§1) A standard greenhouse herbicide activity screening system was used to evaluate the herbicidal efficacy and crop safety of these test compounds. Seven broadleaf weed species including redroot pigweed (Amaranthus retroflexus, AMARE), velvetleaf (Abutilon theophrasti, ABUTH), sicklepod (Cassia obtusifolia, CASOB), ivyleaf morningglory (Ipomoea hederacea, IPOHE), lambsquarters (Chenopodium album, CHEAL), common ragweed (Ambrosia artemisiifolia L., AMBEL), and cocklebur (Xanthium strumarium, XANST) were used as test species. Four grass weed species including green foxtail (Setaria viridis, SETVI), barnyardgrass (Echinochloa crus-galli, ECHCG), johnsongrass (Sorghum halepense, SORHA), and large crabgrass (Digitaria sanguinalis, DIGSA) were also used. In addition, three crop species, field corn (Zea mays L., var. Dekalb 527, CORN), soybean (Glycine max L., var. Pella 86, SOY), and upland rice (Oryza sp., var. Tebonnet, RICE) were included.
(§2) All plants were grown in 10 cm square plastic pots which were filled with a sandy loam soil mix. For pre-emerge tests, seeds were planted one day prior to application of the test compounds. For post-emerge tests, seeds were planted 8-21 days prior to the test to allow emergence and good foliage development prior to application of the test substances. At the time of the post-emerge application, plants of all species were usually at the 2-3 leaf stage of development.
(§3) All test compounds were dissolved in acetone and applied to the test units in a volume of 187 l/ha. Test materials were applied at rates ranging from 15 g ai/ha to 1000 g ai/ha using a track sprayer equipped with a TJ8001 E even flow flat fan spray nozzle. Plants were arranged on a shelf so that the top of the canopy (post-emerge) or top of the soil surface (pre-emerge) was 40-45 cm below the nozzle. Pressurized air was used to force the test solution through the nozzle as it was mechanically advanced over the top of all test plants/pots. This application simulates a typical commercial field herbicide application.
(§4) In the post-emerge test, a commercial non-ionic surfactant was also included (0.25% v/v) to enhance wetting of the leaf surfaces of target plants. Immediately after application, test units of the pre-emerge applications were watered at the soil surface to incorporate the test materials.
(§5) At 14 days after application of the test materials, phytotoxicity ratings were recorded. A rating scale of 0-100 was used as previously described in Research Methods in Weed Science, 2nd edition, B. Truelove, Ed., Southern Weed Science Society, Auburn University, Auburn, Ala., 1977. Briefly, “0” corresponds to no damage and “100” corresponds to complete death of all plants in the test unit. This scale was used both to determine efficacy against weed species and damage to crop species. Herbicide activity data for various compounds of this invention, which are shown by compound No. in Tables 1-7, are shown in Tables 8 and 9.

[2] = system: green foxtail (Setaria viridis, SETVI); assay: Pre-emerge herbicidal activity, greenhouse screen, SETVI
Description: as §1, §2, §3, §4, §5

[3] = system: lambsquarters (Chenopodium album, CHEAL); assay: Pre-emerge herbicidal activity, greenhouse screen, CHEAL
Description: as §1, §2, §3, §4, §5

[4] = system: ivyleaf morningglory (Ipomoea hederacea, IPOHE); assay: Pre-emerge herbicidal activity, greenhouse screen, IPOHE
Description: as §1, §2, §3, §4, §5

[5] = system: redroot pigweed (Amaranthus retroflexus, AMARE); assay: Post-emerge herbicidal activity, greenhouse screen, AMARE
Description: as §1, §2, §3, §4, §5

[6] = system: common ragweed (Ambrosia artemisiifolia L., AMBEL); assay: Post-emerge herbicidal activity, greenhouse screen, AMBEL
Description: as §1, §2, §3, §4, §5

[7] = system: barnyardgrass (Echinochloa crus-galli, ECHCG); assay: Pre-emerge herbicidal activity, greenhouse screen, ECHCG
Description: as §1, §2, §3, §4, §5

[8] = system: green foxtail (Setaria viridis, SETVI); assay: Post-emerge herbicidal activity, greenhouse screen, SETVI
Description: as §1, §2, §3, §4, §5

[9] = system: large crabgrass (Digitaria sanguinalis, DIGSA); assay: Post-emerge herbicidal activity, greenhouse screen, DIGSA
Description: as §1, §2, §3, §4, §5

[10] = system: lambsquarters (Chenopodium album, CHEAL); assay: Post-emerge herbicidal activity, greenhouse screen, CHEAL
Description: as §1, §2, §3, §4, §5

[11] = system: johnsongrass (Sorghum halepense, SORHA); assay: Pre-emerge herbicidal activity, greenhouse screen, SORHA
Description: as §1, §2, §3, §4, §5

[12] = system: ivyleaf morningglory (Ipomoea hederacea, IPOHE); assay: Post-emerge herbicidal activity, greenhouse screen, IPOHE
Description: as §1, §2, §3, §4, §5

[13] = system: large crabgrass (Digitaria sanguinalis, DIGSA); assay: Pre-emerge herbicidal activity, greenhouse screen, DIGSA
Description: as §1, §2, §3, §4, §5

[14] = system: johnsongrass (Sorghum halepense, SORHA); assay: Post-emerge herbicidal activity, greenhouse screen, SORHA
Description: as §1, §2, §3, §4, §5

[15] = system: common ragweed (Ambrosia artemisiifolia L., AMBEL); assay: Pre-emerge herbicidal activity, greenhouse screen, AMBEL
Description: as §1, §2, §3, §4, §5

[16] = system: barnyardgrass (Echinochloa crus-galli, ECHCG); assay: Post-emerge herbicidal activity, greenhouse screen, ECHCG
Description: as §1, §2, §3, §4, §5

[17] = system: velvetleaf (Abutilon theophrasti, ABUTH); assay: Post-emerge herbicidal activity, greenhouse screen, ABUTH
Description: as §1, §2, §3, §4, §5

[18] = system: sicklepod (Cassia obtusifolia, CASOB); assay: Pre-emerge herbicidal activity, greenhouse screen, CASOB
Description: as §1, §2, §3, §4, §5

[19] = system: velvetleaf (Abutilon theophrasti, ABUTH); assay: Pre-emerge herbicidal activity, greenhouse screen, ABUTH
Description: as §1, §2, §3, §4, §5

[20] = system: sicklepod (Cassia obtusifolia, CASOB); assay: Post-emerge herbicidal activity, greenhouse screen, CASOB
Description: as §1, §2, §3, §4, §5

Structure (SMILES): Cn1c(C(F)(F)F)cc(=O)n(-c2c(F)cc(Cl)c3ncoc23)c1=S [Compound 1-1, 3-(4-chloro-6-fluoro-1,3-benzoxazol-7-yl)-1-methyl-2-thioxo-6-(trifluoromethyl)-2,3-dihydropyrimidin4(1H)-one]
- Pre-emerge Herbicidal Activity AMARE ([1]; 63 g ai/ha): 100
- Pre-emerge Herbicidal Activity AMARE ([1]; 250 g ai/ha): 100
- Pre-emerge Herbicidal Activity SETVI ([2]; 63 g ai/ha): 100
- Pre-emerge Herbicidal Activity SETVI ([2]; 250 g ai/ha): 100
- Pre-emerge Herbicidal Activity CHEAL ([3]; 63 g ai/ha): 100
- Pre-emerge Herbicidal Activity CHEAL ([3]; 250 g ai/ha): 100
- Pre-emerge Herbicidal Activity IPOHE ([4]; 63 g ai/ha): 100
- Pre-emerge Herbicidal Activity IPOHE ([4]; 250 g ai/ha): 100
- Post-emerge Herbicidal Activity AMARE ([5]; 63 g ai/ha): 100
- Post-emerge Herbicidal Activity AMARE ([5]; 250 g ai/ha): 100
- Post-emerge Herbicidal Activity AMBEL ([6]; 63 g ai/ha): 100
- Post-emerge Herbicidal Activity AMBEL ([6]; 250 g ai/ha): 100
- Pre-emerge Herbicidal Activity ECHCG ([7]; 63 g ai/ha): 100
- Pre-emerge Herbicidal Activity ECHCG ([7]; 250 g ai/ha): 100
- Post-emerge Herbicidal Activity SETVI ([8]; 63 g ai/ha): 100
- Post-emerge Herbicidal Activity SETVI ([8]; 250 g ai/ha): 100
- Post-emerge Herbicidal Activity DIGSA ([9]; 63 g ai/ha): 95
- Post-emerge Herbicidal Activity DIGSA ([9]; 250 g ai/ha): 99
- Post-emerge Herbicidal Activity CHEAL ([10]; 63 g ai/ha): 100
- Post-emerge Herbicidal Activity CHEAL ([10]; 250 g ai/ha): 100
- Pre-emerge Herbicidal Activity SORHA ([11]; 63 g ai/ha): 100
- Pre-emerge Herbicidal Activity SORHA ([11]; 250 g ai/ha): 100
- Post-emerge Herbicidal Activity IPOHE ([12]; 63 g ai/ha): 100
- Post-emerge Herbicidal Activity IPOHE ([12]; 250 g ai/ha): 100
- Pre-emerge Herbicidal Activity DIGSA ([13]; 63 g ai/ha): 100
- Pre-emerge Herbicidal Activity DIGSA ([13]; 250 g ai/ha): 100
- Post-emerge Herbicidal Activity SORHA ([14]; 63 g ai/ha): 95
- Post-emerge Herbicidal Activity SORHA ([14]; 250 g ai/ha): 100
- Pre-emerge Herbicidal Activity AMBEL ([15]; 63 g ai/ha): 100
- Pre-emerge Herbicidal Activity AMBEL ([15]; 250 g ai/ha): 100
- Post-emerge Herbicidal Activity ECHCG ([16]; 63 g ai/ha): 100
- Post-emerge Herbicidal Activity ECHCG ([16]; 250 g ai/ha): 100
- Post-emerge Herbicidal Activity ABUTH ([17]; 63 g ai/ha): 100
- Post-emerge Herbicidal Activity ABUTH ([17]; 250 g ai/ha): 100
- Pre-emerge Herbicidal Activity CASOB ([18]; 63 g ai/ha): 100
- Pre-emerge Herbicidal Activity CASOB ([18]; 250 g ai/ha): 100
- Pre-emerge Herbicidal Activity ABUTH ([19]; 63 g ai/ha): 100
- Pre-emerge Herbicidal Activity ABUTH ([19]; 250 g ai/ha): 100
- Post-emerge Herbicidal Activity CASOB ([20]; 63 g ai/ha): 100
- Post-emerge Herbicidal Activity CASOB ([20]; 250 g ai/ha): 100
